According to patent publication US8168860B2, “Compositions and methods for the modification of physiological responses in plants” (Rohm and Haas Company, priority 2007, dated 2012):
Where “and” joins values, the source holds several entries; their conditions need not be identical. Identical values can stand only once.

How the values were obtained:
Assay type in all cases: in vivo
[1] = test system: transformed tobacco plants; assay: Triple response assay, shoot length of transformed tobacco shoots in dark with ethylene; conditions: for Shoot Length Avg (cm) / Shoot Length (cm): induced, 10 μM inducer, ethylene about 10 ppm, 18 days; for Shoot Length (cm): single shoots
Method: A triple response assay as described in Guzman and Ecker 1990 The Plant Cell, 2:513-523, modified as provided herein, was conducted to determine the effect of the modulation of ethylene sensitivity in the transformed tobacco plants of Example 2. From each transformed plant designated 185-1, 184-3, 185-8, 185-11, 187-7, 187-13, 187-17 and 187-21, two leaves from each plant were cut into small pieces. These pieces were plated onto MSS plates containing […] kanamycin, with or without 10 μM inducer, i.e., 3,5 Dimethyl-benzoic acid N-(1-ethyl-2,2-dimethyl-propyl)-N′-(3S-hydroxymethyl-5-methyl-2,3-dihydro-benzo[1,4]dioxine-6-carbonyl)hydrazide. MSS plates without antibiotic or inducer were used as controls.
These plated plant tissues were grown at 25° C. with light in growth chambers to induce shoots. Shoots were transferred into fresh plates for about two weeks for continued growth at 25° C. Each callus was then transferred to new culture dishes with or without inducer. Each callus with shoots starting to initiate was split into several plates with approximately equal amounts of callus per plate.
The plates were then separated into groups for the following treatment protocols which lasted for 18 days
Shoot length was measured, and the relative assessment of the efficacy of the transgenic plants prepared according to the Examples based on raw data for shoot length is reported in Table I for conditions (a) through (d) above. Typically, wild-type shoots exposed to ethylene in the dark display stunted growth. Ethylene insensitive plants under these conditions should show elongated growth. […] Shoots grown in the light produced uninterpretable data.

[2] = test system: Wild-type, ein2-5 and p1002 Arabidopsis transformant seedlings; assay: Triple response assay, Arabidopsis seedlings, root and hypocotyl growth with ethylene; conditions: for Roots (mm) Avg / Hypocotyls (mm) Avg: 11 days
Method: (§1) A triple response assay (Guzman and Ecker, 1990 cited above, modified as described below) was used to determine the modulation of ethylene sensitivity in the transformed Arabidopsis plants of Example 4. Arabidopsis seed was surface-sterilized and imbibed in 20 μM inducer in the dark for 4 days at 4° C. The seed was plated on 0.5× MS with 1% sucrose and 20 μM inducer and for mutant receptors treated with 10 ppm ethylene or 1 ppm ethylene for wild-type receptors and grown in the dark for 4-8 days at 21° C. The response to ethylene was scored on the last day.
Wild-type, ein2-5 (an ethylene insensitive mutant control), and p1002 Arabidopsis transformant seedlings were assayed for ethylene insensitivity using the triple response assay (Guzman and Ecker, 1990, cited above, with the following modifications) in which seeds were germinated on 0.5× MS media for 11 days in the dark in the presence of 10 ppm ethylene. Root and hypocotyl growth is inhibited by ethylene in ethylene sensitive but not in ethylene insensitive seedlings.

[3] = test system: transformed tomato plants; assay: Triple response assay, transformed tomato plants with ethylene; conditions: transgenic tomato with etr1-1 cassettes, 20 μM inducer, dark, 4-8 days
Method: as §1, with “1990,” for “1990”, “tomato plants. Tomato” for “Arabidopsis plants of Example 4. Arabidopsis”

[4] = test system: tomato seedlings (WT, p1002 and p1003 lines); assay: Tomato seedling growth in the dark on 20 μM ACC with or without inducer; conditions: for Hypocotyls (mm) / Root (mm): 20 μM inducer, 20 μM ACC, 14 day old seedlings, dark
Method: Seed from three homozygous independent p1002 and p1003 lines were germinated in the dark on 0.5× MS medium+1% sucrose containing 20 μM ACC, the precursor to ethylene. Germination on ACC inhibits tomato seedling growth. Seed from the same lines also was germinated in the presence of 20 μM ACC plus 20 μM inducer.

[5] = test system: transformed tobacco plants; assay: Triple response assay, shoot length of transformed tobacco shoots in dark with ethylene; conditions: tobacco plant 185-3 (VGE), induced, 10 μM inducer, ethylene about 10 ppm, 18 days
[6] = Arabidopsis, presence of inducer, 10 ppm ethylene
[7] = Ein2-5 seedlings, 20 μM inducer, 10 ppm ethylene, dark
[8] = WT seedlings, 20 μM inducer, 10 ppm ethylene, dark
[9] = p1002-1-4 seedlings, 20 μM inducer, 10 ppm ethylene, dark
[10] = p1002-3-4 seedlings, 20 μM inducer, 10 ppm ethylene, dark
[11] = p1002-11-3 seedlings, 20 μM inducer, 10 ppm ethylene, dark
[12] = p1002-23-2 seedlings, 20 μM inducer, 10 ppm ethylene, dark
[13] = p1002-24-4 seedlings, 20 μM inducer, 10 ppm ethylene, dark
[14] = tomato line p1002-4 (first line so labelled, r8)
[15] = tomato line p1002-4 (second line so labelled, r13)

CCC(N(NC(=O)c1ccc2c(c1C)O[C@@H](CO)CO2)C(=O)c1cc(C)cc(C)c1)C(C)(C)C (stereo partly drawn) [inducer, 3,5 Dimethyl-benzoic acid N-(1-ethyl-2,2-dimethyl-propyl)-N′-(3S-hydroxymethyl-5-methyl-2,3-dihydro-benzo[1,4]dioxine-6-carbonyl)hydrazide]
Shoot Length Avg (cm) ([1]; tobacco plant 185-1 (VGE)): 2.8 cm
Shoot Length Avg (cm) ([1]; tobacco plant 185-8 (VGE)): 4.6 cm
Shoot Length (cm) ([1]; tobacco plant 185-8 (VGE)): 5.5 cm and 5.0 cm and 4.0 cm and 4.4 cm and 4.3 cm
Shoot Length Avg (cm) ([1]; tobacco plant 185-11 (VGE)): 4.0 cm
Shoot Length (cm) ([1]; tobacco plant 185-11 (VGE)): 4.0 cm and 4.5 cm and 3.0 cm
Shoot Length Avg (cm) ([1]; tobacco plant 187-7 (GVE)): 3.0 cm
Shoot Length (cm) ([1]; tobacco plant 187-7 (GVE)): 3.0 cm
Shoot Length Avg (cm) ([1]; tobacco plant 187-13 (GVE)): 3.9 cm
Shoot Length (cm) ([1]; tobacco plant 187-13 (GVE)): 4.0 cm and 3.5 cm and 5.0 cm and 3.0 cm
Shoot Length Avg (cm) ([1]; tobacco plant 187-17 (GVE)): 4.3 cm
Shoot Length (cm) ([1]; tobacco plant 187-17 (GVE)): 5.6 cm and 3.5 cm
Shoot Length Avg (cm) ([1]; tobacco plant 187-21 (GVE)): 3.4 cm
Shoot Length (cm) ([1]; tobacco plant 187-21 (GVE)): 4.0 cm and 3.5 cm and 3.0 cm and 2.5 cm
ethylene insensitivity, based on increased shoot length compared to non-induced transgenic plants ([1]; transgenic tobacco with etr1-1 cassettes, presence of inducer, ethylene): demonstrated ethylene insensitivity
root length of most p1002 transformants versus wild-type or ein2 mutant seedlings ([2]; Arabidopsis, inducer in the presence of silver, 10 ppm ethylene): not significantly longer
effect on hypocotyls of p1002 transformants [2, 6]: No effect was observed
root length of p1002 transformants relative to wild-type seedlings [2, 6]: significantly longer
Roots (mm) Avg ([2]; Ein2-5 seedlings, 20 μM inducer + 5 μM AgNO3, 10 ppm ethylene, dark): 12.4 mm
Hypocotyls (mm) Avg [2, 7]: ~30 mm
Roots (mm) Avg [2, 7]: 19.9 mm
Roots (mm) Avg ([2]; WT seedlings, 20 μM inducer + 5 μM AgNO3, 10 ppm ethylene, dark): 13.9 mm
Hypocotyls (mm) Avg [2, 8]: 12 mm
Roots (mm) Avg [2, 8]: 3.92 mm
Roots (mm) Avg ([2]; p1002-1-4 seedlings, 20 μM inducer + 5 μM AgNO3, 10 ppm ethylene, dark): 11.8 mm
Hypocotyls (mm) Avg [2, 9]: 12.3 mm
Roots (mm) Avg [2, 9]: 5.8 mm
Roots (mm) Avg ([2]; p1002-3-4 seedlings, 20 μM inducer + 5 μM AgNO3, 10 ppm ethylene, dark): 17.4 mm
Hypocotyls (mm) Avg [2, 10]: 12.7 mm
Roots (mm) Avg [2, 10]: 6.7 mm
Roots (mm) Avg ([2]; p1002-11-3 seedlings, 20 μM inducer + 5 μM AgNO3, 10 ppm ethylene, dark): 11.7 mm
Hypocotyls (mm) Avg [2, 11]: 12.1 mm
Roots (mm) Avg [2, 11]: 5.6 mm
Roots (mm) Avg ([2]; p1002-23-2 seedlings, 20 μM inducer + 5 μM AgNO3, 10 ppm ethylene, dark): 10.5 mm
Hypocotyls (mm) Avg [2, 12]: 12.1 mm
Roots (mm) Avg [2, 12]: 6.04 mm
Roots (mm) Avg ([2]; p1002-24-4 seedlings, 20 μM inducer + 5 μM AgNO3, 10 ppm ethylene, dark): 13.1 mm
Hypocotyls (mm) Avg [2, 13]: 12.2 mm
Roots (mm) Avg [2, 13]: 4.96 mm
ethylene insensitivity, based on increased shoot length and/or altered root growth compared to non-induced transgenic plants ([2]; transgenic Arabidopsis with etr1-1 cassettes, 20 μM inducer, ethylene, dark, 4-8 days): demonstrated ethylene insensitivity
ethylene insensitivity, based on increased shoot length and/or altered root growth compared to non-induced transgenic plants [3]: demonstrated ethylene insensitivity
Hypocotyls (mm) ([4]; WT tomato): 11.2 ± 3.18 mm
Root (mm) ([4]; WT tomato): 11.2 ± 3.18 mm
Hypocotyls (mm) [4, 14]: 32.7 ± 16.8 mm
Root (mm) [4, 14]: 42.2 ± 16.3 mm
Hypocotyls (mm) [4, 15]: 33.9 ± 6.02 mm
Root (mm) [4, 15]: 29.8 ± 21.4 mm
Hypocotyls (mm) ([4]; tomato line p1002-7): 36.2 ± 8.42 mm
Root (mm) ([4]; tomato line p1002-7): 44.5 ± 7.71 mm
Hypocotyls (mm) ([4]; tomato line p1002-9): 29.9 ± 7.85 mm
Root (mm) ([4]; tomato line p1002-9): 35.0 ± 16.0 mm
Hypocotyls (mm) ([4]; tomato line p1002-16): 39.6 ± 9.62 mm
Root (mm) ([4]; tomato line p1002-16): 19.5 ± 16.3 mm
Hypocotyls (mm) ([4]; tomato line p1002-18): 35.4 ± 8.82 mm
Root (mm) ([4]; tomato line p1002-18): 35.4 ± 8.82 mm
ethylene insensitivity (elongated hypocotyls with no apical hook) ([4]; tomato p1002 and p1003 lines, growth on ACC in the presence of inducer): resulted in a state of ethylene insensitivity
Shoot Length Avg (cm) [5]: 5.6 cm
